Assay results as given in ChEMBL document CHEMBL1201862, “PubChem BioAssay data set” (2004).
Values belong to the molecule of their own block, whether it stands above or below them. Calls of active or inactive are those of the source.

Legend:
[1] = target: T1, Polyadenylate-binding protein 1 (Homo sapiens, UniProt P11940); test: MLLE binding blockers, Cy5 peptide tracer – biochemical, fluorescence polarization, Cy5-PAM2 peptide, secondary, miRNA deadenylation inhibitor project, dose response (AID 602260); type: functional; conditions: read-out: IC50_Mean
[2] = target: T1, Polyadenylate-binding protein 1; test: MLLE domain peptide-binding blockers, IC50 – biochemical, fluorescence polarization, FITC-PAM2 peptide, dose response (AID 602259); type: functional; conditions: read-out: IC50_Mean
[3] = target: T2, Protein skinhead-1 (Caenorhabditis elegans, UniProt P34707); type: functional
T2 sequence (P34707 whole entry): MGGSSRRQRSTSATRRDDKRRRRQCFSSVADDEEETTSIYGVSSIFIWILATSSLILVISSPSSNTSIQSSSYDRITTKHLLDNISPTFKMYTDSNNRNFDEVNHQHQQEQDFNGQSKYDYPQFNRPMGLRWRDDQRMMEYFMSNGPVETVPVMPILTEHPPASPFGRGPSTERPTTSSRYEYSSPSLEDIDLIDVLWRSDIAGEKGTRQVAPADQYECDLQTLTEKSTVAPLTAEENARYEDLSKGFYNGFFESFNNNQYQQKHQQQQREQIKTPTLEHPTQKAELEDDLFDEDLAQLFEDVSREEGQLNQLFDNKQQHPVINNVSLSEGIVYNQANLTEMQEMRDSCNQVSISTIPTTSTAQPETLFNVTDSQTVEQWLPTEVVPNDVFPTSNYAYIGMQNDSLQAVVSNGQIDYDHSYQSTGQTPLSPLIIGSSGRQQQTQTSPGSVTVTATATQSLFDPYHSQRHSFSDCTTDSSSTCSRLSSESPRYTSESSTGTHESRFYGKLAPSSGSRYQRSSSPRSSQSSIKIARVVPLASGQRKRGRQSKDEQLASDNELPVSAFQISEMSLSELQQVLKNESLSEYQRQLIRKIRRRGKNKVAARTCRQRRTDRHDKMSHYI

[4] = system: H9c2; test: cells; type: functional, cell-based; conditions: Rattus norvegicus, H9c2, Myocardium;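 further: confirmatory concentration-response retest of ultra-high-throughput screening hits for modulation of myocardial damage; cell death induced by hydrogen peroxide oxidative stress; compound pretreatment for 60 min then peroxide exposure for 2 h; potency is for protecting the cells against peroxide damage rather than for killing them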
[5] = loss of viability in HepG2 cells – cell-based, CellTiter-Glo, cherry-picked, cytotoxicity control for Shn3 inhibitor project, dose response (AID 624134); type: functional
[6] = non-specific 3'UTR reporter inhibition in Clone20-Shn3RL – cell-based, Renilla luciferase, cherry-picked, counter-screen for Shn3 inhibitor project, dose response (AID 624133); type: functional
[7] = reduction of Shn3 3'UTR-driven luciferase in osteoblasts – cell-based, Clone20 osteoblasts, firefly luciferase, cherry-picked, dose response (AID 624132); type: functional;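 further: firefly luciferase luminescence from reporter carrying the Shn3 3'UTR in osteoblasts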
[8] = system: SN12K1; test: cells; type: functional; conditions: Homo sapiens
[9] = system: P388/ADR; test: cells; type: functional; conditions: Mus musculus
[10] = system: P388; test: cells; type: functional; conditions: Mus musculus

T1 sequence (P11940 whole entry, the tested form may be a part): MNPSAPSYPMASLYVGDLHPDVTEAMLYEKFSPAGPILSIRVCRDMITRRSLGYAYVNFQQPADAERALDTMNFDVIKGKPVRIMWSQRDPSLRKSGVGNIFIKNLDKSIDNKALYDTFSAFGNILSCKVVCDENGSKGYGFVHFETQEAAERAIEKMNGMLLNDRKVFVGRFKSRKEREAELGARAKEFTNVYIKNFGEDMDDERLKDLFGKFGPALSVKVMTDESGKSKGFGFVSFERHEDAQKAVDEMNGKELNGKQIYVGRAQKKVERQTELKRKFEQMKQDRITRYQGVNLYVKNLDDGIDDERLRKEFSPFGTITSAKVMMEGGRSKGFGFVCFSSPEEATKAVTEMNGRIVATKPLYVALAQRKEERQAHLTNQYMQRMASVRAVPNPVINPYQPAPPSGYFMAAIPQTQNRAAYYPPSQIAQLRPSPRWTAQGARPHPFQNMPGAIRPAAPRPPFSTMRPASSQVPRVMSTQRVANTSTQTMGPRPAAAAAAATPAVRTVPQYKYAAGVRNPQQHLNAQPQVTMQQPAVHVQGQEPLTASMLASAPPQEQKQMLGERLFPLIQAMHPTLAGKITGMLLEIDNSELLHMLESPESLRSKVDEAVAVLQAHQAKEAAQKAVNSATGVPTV

IC50 [1]: > 66 µM (inactive) | IC50 [2]: > 66 µM (inactive)
Compound: CCC(OC(=O)CC1Sc2ccccc2NC1=O)C(=O)NCC1CCCO1 (centres undefined)

IC50 [3]: > 100 µM (inactive)
Compound: Cc1cc(OCC(O)CN2CCN(C)CC2)ccc1C(C)C (centres undefined)

Compound: COc1ccccc1C(=O)Nc1nc(-c2ccc3c(c2)OCCO3)cs1
IC50 [4]: > 79 µM (inactive)

Compound: CCOc1cccc(-c2nn3c(-c4ccccn4)nnc3s2)c1
IC50 [4]: > 79 µM (inactive)

Compound: O=C(Nc1ccc(N2CCOCC2)c(Cl)c1)c1ccc([N+](=O)[O-])o1
AC50 [5]: 24.9 µM (active) | AC50 [6]: 14.7 µM (active) | AC50 [7]: 6.23 µM (active)

IC50 [3]: 27.6 µM (active)
Compound: CCCCOc1ccc(C(=O)OC2CC(C)N(C)CC2C)cc1 (centres undefined)

IC50 [1]: > 66 µM (inactive) | IC50 [2]: > 66 µM (inactive)
Compound: CCN1C(=O)[C@H]2[C@H]3CN=C(SCC(=O)c4ccccc4)N3[C@@](C)(C(=O)OC)[C@H]2C1=O

Compound: CS(=O)(=O)c1ccc(C(=O)OCC(=O)Nc2cccnc2Cl)cc1[N+](=O)[O-]
AC50 [5]: > 70 µM (inactive) | AC50 [6]: 12.9 µM (active) | AC50 [7]: 9.09 µM (active)

Compound: COc1cc2c(C#CCCO)c(-c3ccsc3)oc(=O)c2cc1OC
IC50 [4]: 20.7 µM (active)

IC50 [1]: > 66 µM (inactive) | IC50 [2]: > 66 µM (inactive)
Compound: Cc1c(Cl)cccc1N=C(S)NCCc1ccc(S(N)(=O)=O)cc1

Compound: CC(C)C1C(=O)N(Cc2cn(CCC3OCCO3)nn2)CCS(=O)(=O)N1Cc1ccc(-c2ccc(Cl)cc2)cc1 (centres undefined)
AC50 [5]: > 70 µM (inactive) | AC50 [6]: 2.83 µM (active) | AC50 [7]: 2.13 µM (active)

Compound: c1ccc2cc3c(cc2c1)OP1(Oc2cccc4cccnc24)(O3)Oc2cc3ccccc3cc2O1
GI50 [8]: 3.31 µM (inactive) | GI50 [9]: 1.42 µM (inactive) | GI50 [10]: 1.2 µM (inactive)

Compound: CCOC(=O)C[n+]1ccc2c([nH]c3cc(OC)ccc32)c1C
GI50 [8]: > 80.2 µM (inactive) | GI50 [9]: 35.1 µM (inactive) | GI50 [10]: 38.9 µM (inactive)

Compound: Cc1ccc(OP2(=O)Oc3ccc4ccccc4c3CN2c2ccc(Cl)cc2)cc1C (centres undefined)
GI50 [8]: > 100 µM (inactive) | GI50 [9]: > 100 µM (inactive) | GI50 [10]: > 100 µM (inactive)

Compound: O=[N+]([O-])c1cnccc1-n1nnc2ccccc21
GI50 [8]: 27.7 µM (inactive) | GI50 [10]: 7.96 µM (inactive)

Compound: S=C(NCCCCCCNC(=S)Nc1c2ccccc2nc2ccccc12)Nc1c2ccccc2nc2ccccc12
GI50 [8]: 6.22 µM (inactive) | GI50 [9]: 65 µM (inactive) | GI50 [10]: 44.5 µM (inactive)

Compound: O=C(O)C1CCC(=O)N1S(=O)(=O)c1ccccc1 (centres undefined)
GI50 [8]: > 100 µM (inactive) | GI50 [9]: > 100 µM (inactive) | GI50 [10]: > 100 µM (inactive)

Compound: CSCSCC(N)CO.Cc1[nH]c(=O)[nH]c(=O)c1/C=C/C(=O)O
GI50 [8]: > 625 µM (inactive) | GI50 [9]: > 625 µM (inactive) | GI50 [10]: > 625 µM (inactive)

Compound: C=CC1(NC(=O)c2ccccc2)CCC(C(C)(C)C)CC1 (centres undefined)
GI50 [8]: 32.4 µM (inactive) | GI50 [9]: 22.2 µM (inactive) | GI50 [10]: 12.2 µM (inactive)

Compound: C1CN1c1nc(N2CC2)nc(N2CC2)n1
GI50 [8]: 5.21 µM (inactive) | GI50 [9]: 0.466 µM (active) | GI50 [10]: 0.465 µM (active)

Compound: O=NN(CCCl)C(=O)NCCCl [CARMUSTINE]
GI50 [8]: 58.3 µM (inactive) | GI50 [9]: 7.29 µM (inactive) | GI50 [10]: 6.62 µM (inactive)
